Patent publication US12234238B2, “Antimicrobial compounds and methods of making and using the same” (BIOVERSYS AG, priority 2017, dated 2025)
Where two headings read alike, the source gives them in different places.

Columns and labels:
[1] = tested on: Staphylococcus aureus (S. aureus) 11540 strain; test: standard microdilution assay to determine minimum inhibitory concentrations (MICs), S. aureus; assay type: cell-based
Procedure, shortened: (§1)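 MICs by broth microdilution in 100 μl final volume following CLSI protocols, with reference strains as quality control. Results presented as +/− relative to a 16 micrograms/mL cutoff.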

[2] = tested on: Eschericia coli (E. coli) strain ATCC25922; test: standard microdilution assay to determine minimum inhibitory concentrations (MICs), E. coli; assay type: cell-based; details: Escherichia coli
Procedure, shortened: as §1

[3] = Rat infusion study: clinical signs and IV plasma pharmacokinetics across infusion lengths; assay type: in vivo; details: male Sprague-Dawley rats; for Clinical Signs: 4 mg/kg jugular venous infusion, listed as Compound No. 34, 4 mg/kg; for AUC(0-inf) / Cmax / half-life: male, Sprague-Dawley, rat, plasma, iv, 4 mg/kg, 4 mg/kg IV
Description: Many pyrrolocytosines, including Compound No. 34, share an acute clinical syndrome, which manifests in as a Cmax-driven hemodynamic effect and is associated with immediate clinical signs such as labored breathing. Cmax is the peak concentration a molecule reaches in the plasma, in this case directly following intravenous administration, and is expressed generally in micrograms/milliliter. The syndrome is dose-dependent, meaning that the higher the amount of drug given, the more severe the effects. This is generally considered the limiting toxicity for the effected compounds of this class. Importantly, the efficacy for the pyrrolocytosines, including Compound No. 34, is not driven by the Cmax but rather by the AUC (Area-Under-the-plasma-drug-concentration-time-Curve), which is an expression of the total body exposure to the drug and is expressed generally in micrograms*hour/milliliter. In rat studies with several pyrrolocytosines, including Compound No. 34, it has been shown that increasing the length, or duration, of the intravenous administration effectively modulates or eliminates the clinical syndrome, depresses the concentration maximum, results in a short distribution half-life but still affords drug exposures necessary for efficacy.
As an example, a study conducted by PharmOptima under study number 2017-164 with Compound No. 34, compared the clinical signs and plasma drug concentration data across several infusion lengths: 10-minutes, which is the screening length at which the acute syndrome is observed, 1-hour, 2-hour, 3-hour and 24-hour. A total of 15 male Sprague-Dawley rats (275-300 grams) were used in the study, divided evenly across the 5 dosing regimens. The route of drug administration was via jugular venous infusion, using a syringe infusion pump. Compound No. 34 was formulated in phosphate-buffered mannitol, with a starting pH=6.5.
There was a clear decrease in Cmax as infusion length was increased. The intermediate dosing groups still achieved significant AUC, or drug exposures for efficacy, and particularly with the 3 h infusion itis clear that the dose can be increased to move the AUC higher while not approaching the Cmax associated with the severe end of the acute tolerability. The 24 h infusion is particularly compelling. It indicates the concentration can be titrated to achieve steady-state drug levels for efficacy while remaining well below the Cmax associated with clinical signs. […] In the end, this translates into a generous therapeutic window.

Row | Structure (SMILES) | MIC [1] | MIC [2] | other results
1 | C[C@H](N)CCCc1cc(Cl)c(F)c(-c2cc3cn(-c4ccc([C@@H]5CCC[C@@H](CCSC(=N)N)N5)cc4)c(=O)nc3[nH]2)c1 [Compound 34] | ≤ 16 µg/mL | ≤ 16 µg/mL | Clinical Signs ([3]; 10-min infusion): significant labored breathing; Clinical Signs ([3]; 1 h, 2 h and 3 h infusion groups): minor signs of chewing and licking; Clinical Signs ([3]; 24 h infusion): no clinical signs and none; AUC(0-inf) ([3]; 10-min infusion): 22000 ng·h/mL; Cmax ([3]; 10-min infusion): 23600 ng/mL; AUC(0-inf) ([3]; 1 h infusion): 14400 ng·h/mL; Cmax ([3]; 1 h infusion): 8890 ng/mL; AUC(0-inf) ([3]; 2 h infusion): 14400 ng·h/mL; Cmax ([3]; 2 h infusion): 8120 ng/mL; AUC(0-inf) ([3]; 3 h infusion): 9150 ng·h/mL; Cmax ([3]; 3 h infusion): 3760 ng/mL; AUC(0-inf) ([3]; 24 h infusion): 11000 ng·h/mL; Cmax ([3]; 24 h infusion): 560 ng/mL; half-life ([3]; 10-min infusion, read-out: T½ (h)-alpha (converted)): 1.01 h; half-life ([3]; 1 h infusion, read-out: T½ (h)-alpha (converted)): 0.91 h; half-life ([3]; 2 h infusion, read-out: T½ (h)-alpha (converted)): 1.02 h; half-life ([3]; 3 h infusion, read-out: T½ (h)-alpha (converted)): 0.99 h; half-life ([3]; 24 h infusion, read-out: T½ (h)-alpha (converted)): 1.01 h; half-life ([3]; first of two cells, infusion group(s) unclear (grid: 10-min), read-out: T½ (h)-terminal (converted)): 15.2 h; half-life ([3]; second of two cells, infusion group(s) unclear (grid: 1 h), read-out: T½ (h)-terminal (converted)): 15.2 h
2 | C[C@H](N)CCCc1cc(Cl)c(F)c(-c2cc3cn(-c4ccc([C@H]5C[C@H](CCSC(=N)N)CN5CCCF)cc4)c(=O)nc3[nH]2)c1 [Compound 117] | ≤ 16 µg/mL | ≤ 16 µg/mL | 
3 | CCSC(=N)NCC[C@@H]1CCC[C@@H](c2ccc(-n3cc4cc(-c5cc(CCC[C@H](C)N)cc(Cl)c5F)[nH]c4nc3=O)cc2)N1 [Compound 118] | ≤ 16 µg/mL | ≤ 16 µg/mL | 
4 | CC(C)SC(=N)NCC[C@@H]1CCC[C@@H](c2ccc(-n3cc4cc(-c5cc(CCC[C@H](C)N)cc(Cl)c5F)[nH]c4nc3=O)cc2)N1 [Compound 119] | ≤ 16 µg/mL | ≤ 16 µg/mL | 
5 | CSC(=N)NCC[C@@H]1CCC[C@@H](c2ccc(-n3cc4cc(-c5cc(CCC[C@H](C)N)cc(Cl)c5F)[nH]c4nc3=O)cc2)N1 [Compound 120] | ≤ 16 µg/mL | ≤ 16 µg/mL | 
6 | CSC(=N)NCC[C@@H]1CCC[C@@H](c2ccc(-n3cc4cc(-c5cc(CCC[C@H](C)N)cc(Cl)c5F)[nH]c4nc3=O)cc2F)N1 [Compound 121] | ≤ 16 µg/mL | ≤ 16 µg/mL | 
7 | C=CCSC(=N)NCC[C@@H]1CCC[C@@H](c2ccc(-n3cc4cc(-c5cc(CCC[C@H](C)N)cc(Cl)c5F)[nH]c4nc3=O)cc2)N1 [Compound 122] | ≤ 16 µg/mL | ≤ 16 µg/mL | 

The next lines start with results.

Row | MIC [1] | MIC [2] | Structure (SMILES) | other results
8 | ≤ 16 µg/mL | ≤ 16 µg/mL | C[C@H](N)CCCc1cc(Cl)c(F)c(-c2cc3cn(-c4ccc([C@H]5C[C@H](CCSC(=N)N)CN5)cc4)c(=O)nc3[nH]2)c1 [Compound 114] | 
9 | ≤ 16 µg/mL | > 16 µg/mL | C[C@H](N)CCCc1cc(Cl)c(F)c(-c2cc3cn(-c4ccc([C@H]5C[C@H](CCSC(=N)N)C(=O)N5C)cc4)c(=O)nc3[nH]2)c1 [Compound 115] | 
10 | ≤ 16 µg/mL | ≤ 16 µg/mL | C[C@H](N)CCCc1cc(Cl)c(F)c(-c2cc3cn(-c4ccc([C@@H]5C[C@@H](CCSC(=N)N)CN5)cc4)c(=O)nc3[nH]2)c1 [Compound 116] | 
